Assay results published in paper PMC6141003 (Biochimie, 2017).

Columns and labels:
GLUT1 [1] = target: T1, GLUT1 (Mus musculus, UniProt P17809); experiment: [3H]-2-deoxyglucose uptake in L929 fibroblasts; format: cell-based
T1 sequence (P17809 1-492): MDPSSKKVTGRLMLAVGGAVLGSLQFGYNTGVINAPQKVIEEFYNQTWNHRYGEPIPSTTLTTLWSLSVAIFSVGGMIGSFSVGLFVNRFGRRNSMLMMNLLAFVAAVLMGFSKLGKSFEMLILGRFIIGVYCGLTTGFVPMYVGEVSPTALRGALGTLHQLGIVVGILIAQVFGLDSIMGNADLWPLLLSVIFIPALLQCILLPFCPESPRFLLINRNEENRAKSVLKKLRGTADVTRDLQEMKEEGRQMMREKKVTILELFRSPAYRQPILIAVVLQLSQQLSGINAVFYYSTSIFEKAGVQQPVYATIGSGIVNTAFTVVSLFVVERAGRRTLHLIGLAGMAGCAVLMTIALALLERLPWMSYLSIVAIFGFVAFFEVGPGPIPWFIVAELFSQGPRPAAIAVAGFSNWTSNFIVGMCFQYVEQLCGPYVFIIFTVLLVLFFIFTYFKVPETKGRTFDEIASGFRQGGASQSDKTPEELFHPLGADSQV

GLUT1 [2] = target: T1, GLUT1; experiment: dose-dependent competition of [3H]-2DG uptake in L929 fibroblasts; format: cell-based

Q: How did the IC50 (GLUT1 [1]) turn out when `Cn1c(=O)c2c(ncn2C)n(C)c1=O` [caffeine] was run?
A: Its IC50 is roughly 1400 µM.

Q: `OC[C@H]1OC(O)[C@H](O)[C@@H](O)[C@@H]1O` (some centres unmarked) [glucose] was tested. Which “dose-dependent competition of [3H]-2DG uptake in L929 fibroblasts” value (GLUT1 [2]) did it give?
A: Its value is “glucose reduces 2DG uptake in a dose-dependent manner, and that caffeine adds to the inhibitory effects of glucose”.
